Data taken from patent US12214076B2, “Drug delivery vehicles for atherosclerosis nanomedicine” (Northwestern University, priority 2019, dated 2025).
Peptide text beside a SMILES is read from it. * marks the point of attachment. Palmitoyl = CCCCCCCCCCCCCCCC(=O)*

Key:
[1] = tested on: J774.2 murine macrophages; assay: Nitric oxide production of stimulated macrophages; format: cell-based, mouse; settings: 24 hours, LPS and stimulated, 32 μM Ac2-26 or epitope equivalent
Procedure: Macrophage culture and characterization: J774.2 murine macrophages (Sigma-Aldrich) were expanded at 4-9×10^5 cells/mL in growth media consisting of Dulbecco's Modified Eagle's Medium (Sigma-Aldrich) containing 4.5 g/L glucose, 2 mM L-glutamine, 10% v/v FBS, 100 U/m penicillin, and 100 μg/mL streptomycin. Cells were passaged using Accutase™ (StemCell Technologies) and used at passage 6-9 for all experiments. The cells were detached with Accutase™ and gentle scraping, counted, and re-suspended in flow cytometry buffer containing 2% w/v bovine serum albumin (BSA, heat shock fraction free of proteases, globulin, and fatty acids, Sigma-Aldrich) and 0.1% w/v sodium azide (Sigma-Aldrich). To minimize non-specific binding of immunoglobin to Fc receptors, macrophages were incubated with anti-mouse CD16/32 antibody (TrueStain FcX™, Biolegend) at 1 μg/1×10^5 cells for 10 minutes at 4° C. APC anti-mouse CD11b antibody or APC Armenian hamster IgG isotype control antibody (Biolegend) were added at 0.4 μg/1×10^5 cells, FPR2 antibody (Novus Biologics) was added at […], and all samples were incubated for 30 minutes at 4° C. The cells were washed once with flow cytometry buffer by centrifugation at 300×g. FPR2 samples were further treated with goat anti-rabbit Alexa Fluor 488 secondary antibody (Invitrogen) at 2 μg/1×10^5 cells for 20 minutes at 4° C., followed by a wash step. Unstained macrophages served as controls and contained 7AAD viability staining solution (Biolegend) at 0.1 μg/1×10^5. All samples were suspended in 4% paraformaldehyde (Electron Microscopy Sciences) in PBS until analysis. […] All samples were analyzed using Attune NxT Acoustic Focusing Cytometer (Thermo Fisher) with at least 2000 events counted per condition.
Therapeutic effects of ApoA1-Ac2-26 PAs: 10% ROS- and MMP-Ac2-26 PAs, as well as Ac2-26 peptide were added together with 10 μg/mL LPS at 32 μM Ac2-26 to macrophages. […] Concerning the quantification of NO, the reducing solution made of KI in acetic acid and water provides an excess of I− that reacts with nitrite yielding ·NO. […]

[2] = TEM characterization of PA nanofibers for diameter and length (Example 3); format: physicochemical; settings: 30 measurements from three images
Procedure: Samples at 1 mM in PBS were prepared for TEM by plating on copper supports covered with thin carbon foil 400-mesh that were treated with glow discharge. […] Due to the overlapping fibers, automated tools including FiberApp could not be used to analyze the nanofibers. Instead, the TEM images were analyzed manually for nanofiber diameter and length using ImageJ software. Cryogenic TEM of samples was also performed using a JEOL 1230 at 100 kV accelerating voltage and Gatan 831 CCD camera. […] Samples were prepared at 1 mM in PBS blotted once for 3 seconds before plunging into liquid ethane using a Vitrobot Mark III (FEI) vitrification robot.

Row | Diameter (nm) Average [2] [nm] | Diameter (nm) Median [2] [nm] | Length (nm) Average [2] [nm] | Length (nm) Median [2] [nm] | Diameter (nm) Average ([2]; listed as ApoA1) [nm] | Length (nm) Median ([2]; listed as ApoA1) [nm] | Compound | macrophage activation, nitric oxide production relative to the stimulated control [1]
1 |  |  |  |  |  |  | 10% MMP-Ac2-26 PA: co-assembly of 10 mol % MMP-Ac2-26 PA, 50 mol % E2 filler PA, and 40% ApoA1 PA (VVAAEEGGGPQGIWGQGKAMVSEFLKQAWFIENEEQEYVQTVK) | significantly reduced
2 | 9.6 | 9.5 | 626.9 | 615.9 | 9.6±1.7 | 616 | CCCCCCCCCCCCCCCC(=O)N[C@H](C(=O)N[C@H](C(=O)N[C@@H](C)C(=O)N[C@@H](C)C(=O)N[C@@H](CCC(=O)O)C(=O)N[C@@H](CCC(=O)O)C(=O)NCC(=O)N[C@@H](CC(=O)O)C(=O)N[C@@H](Cc1c[nH]c2ccccc12)C(=O)N[C@@H](Cc1ccccc1)C(=O)N[C@@H](CCCCN)C(=O)N[C@@H](C)C(=O)N[C@@H](Cc1ccccc1)C(=O)N[C@@H](Cc1ccc(O)cc1)C(=O)N[C@@H](CC(=O)O)C(=O)N[C@@H](CCCCN)C(=O)N[C@H](C(=O)N[C@@H](C)C(=O)N[C@@H](CCC(=O)O)C(=O)N[C@@H](CCCCN)C(=O)N[C@@H](Cc1ccccc1)C(=O)N[C@@H](CCCCN)C(=O)N[C@@H](CCC(=O)O)C(=O)N[C@@H](C)C(=O)N[C@@H](Cc1ccccc1)C(N)=O)C(C)C)C(C)C)C(C)C [ApoA1 PA] (Palmitoyl-VVAAEEGDWFKAFYDKVAEKFKEAF-NH2) | did not cause significant decreases in nitric oxide production
